pIC50: −log10 of the molar value. No end group written: not given here.
What was measured:
Experiment in all cases: biochemical
Assay type in all cases: binding
HLA-A*6801 = HLA-A*6801 (Homo sapiens, UniProt P04439, A269V/D185E/E176V/E277Q/E87N/F33Y/G231S/I121M/I166T/I218V/L180W/L300P/L318F/N151K/P208A/P217A/Q86R/R169H/T345S)
HLA-A*3101 = HLA-A*3101 (Homo sapiens, UniProt P04439, A270S/D185E/E176V/E277Q/F33T/G231S/G80R/H175R/I121M/I218V/I322F/K168Q/L300P/L318F/M331R/P217A/Q94H/R138Q/T323A/T345S/T97I/V358M)
HLA-A*0301 = HLA-A*0301 (Homo sapiens, UniProt P04439)
HLA-A*3301 = HLA-A*3301 (Homo sapiens, UniProt P04439, A270S/D185E/E176V/E277Q/E87N/F33T/G231S/H175R/I121M/I218V/I322F/K168Q/K210R/L300P/L318F/M331R/P217A/Q86R/Q94H/R138Q/T323A/T345S/T97I/V358M/Y195H)
HLA-A*1101 = HLA-A*1101 (Homo sapiens, UniProt P04439, A114D/D185E/E176A/F33Y/L180Q/S129P/T187R)
Sequence of HLA-A*1101 (P04439 25-365 limits assumed, stated change not applied): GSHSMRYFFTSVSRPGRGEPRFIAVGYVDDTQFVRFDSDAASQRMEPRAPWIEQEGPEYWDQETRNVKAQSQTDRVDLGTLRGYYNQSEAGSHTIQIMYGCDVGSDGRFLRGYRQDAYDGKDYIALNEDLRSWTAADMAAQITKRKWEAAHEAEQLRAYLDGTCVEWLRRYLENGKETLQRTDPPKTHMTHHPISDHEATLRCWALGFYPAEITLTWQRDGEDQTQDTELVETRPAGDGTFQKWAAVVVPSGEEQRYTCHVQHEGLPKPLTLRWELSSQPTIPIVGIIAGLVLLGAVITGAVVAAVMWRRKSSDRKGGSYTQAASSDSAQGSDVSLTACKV

Sequence | pIC50 (HLA-A*6801) | pIC50 (HLA-A*3101) | pIC50 (HLA-A*0301) | pIC50 (HLA-A*3301) | pIC50 (HLA-A*1101)
LVFSNVLCFR | 8.11 | 7.48 | 6.92 | 7.72 | 7.72
AFCWRPRRR | 5.96 | 7.22 | 6.56 | 7.12 | 4.75
KFSEYRHYCY | 4.84 | 6.51 |  | 4.31 | 5.13
KVGPGGYPRR | 6.14 | 6.60 | 5.64 | 5.10 | 6.31
TVQPGPGPGK | 7.55 | 5.87 | 7.39 | 4.16 | 8.60
DTVYGDTLEK | 7.51 | 4.54 | 7.30 | 4.26 | 7.82
VTIRVGGQLK | 7.55 | 5.44 | 7.37 | 4.07 | 7.89
VFADLRIVYK | 6.56 | 6.40 | 5.68 | 6.70 | 6.90
KVGSLQYLK | 5.38 | 5.68 | 6.32 | < 4.36 | 7.15
RLLSKISEYR | 7.68 | 8.11 | 8.28 | 6.97 | 6.18
GLYNLLIRCLR | 5.79 | 6.60 |  | 6.40 | 5.80
QMAVGPGPGK | 7.66 | 5.22 | 7.48 | 4.06 | 7.80
NVMGRWTGR | 7.70 | 7.40 | 5.41 | 7.74 | 6.10
AACWRSRRK | 4.89 | 5.52 | 7.12 | 4.34 | 6.11
KSMLKELIK | < 4.43 | 6.35 | 6.72 | < 4.33 | 6.82
ELTEVFEFAFK | 7.82 | 4.60 | 5.05 | 5.76 | 6.24
GTMYILLKK | 8.51 | 7.54 | 8.66 | 5.07 | 8.92
FAFADLTVVY | 6.40 | 4.63 | 4.73 | 4.57 | 5.23
VVHAQLPAR | 6.70 | 8.47 |  | 7.92 | 6.90

Sequence | pIC50 (HLA-A*6801) | pIC50 (HLA-A*3101) | pIC50 (HLA-A*0301) | pIC50 (HLA-A*3301) | pIC50 (HLA-A*1101)
GTGISYGRK | 5.13 | 4.24 | 6.32 | < 4.36 | 7.11
KISEYRHYNK | 4.81 | 6.40 | 7.54 | 4.61 | 7.74
SLYGKTLEEK | 7.54 | 5.98 | 8.10 | 5.19 | 8.17
ALQAAAAAK | < 4.10 | 4.28 | 7.24 | < 4.14 | 7.19
VTIKVGGQLK | 6.90 | 5.22 | 6.73 | 4.32 | 7.23
GFNHQHLPAR | 4.46 | 6.76 | < 4.33 | 5.25 | 4.55
VSIRVGGQIK | 5.71 | 4.30 | 6.19 | < 4.21 | 7.04
SSFDIKSEVK | 7.51 | 4.70 | 5.72 | 4.15 | 7.72
KVRFHNIRGR | 5.40 | 7.57 | 7.41 | 5.35 | 5.06
KMFLQLAK | 5.08 | 6.17 | 7.35 | < 3.90 | 7.21
SFYGTTLEK | 6.30 | 6.29 | 7.47 | 5.47 | 7.82
KQHTCYLIR | 4.91 | 7.89 |  | 5.64 | 6.67
KILIKIPVTK | 4.71 | 5.78 |  | 4.60 | 7.22
KFYSKISEYK | 6.68 | 7.57 | 8.12 | 6.48 | 6.17
VSIRVGGQTK | 6.54 | 4.52 | 6.47 | 4.41 | 7.68
SFYGKTLEER | 7.38 | 7.77 | 6.19 | 7.18 | 6.69
LTISYGRK | 6.32 | 4.57 | 6.01 | 4.42 | 6.15
RFCLLFYSK | 6.63 | 7.08 |  | 6.35 | 6.32
GTTLESITKK | 4.99 | 4.07 | 6.21 | 3.88 | 6.97

Sequence | pIC50 (HLA-A*6801) | pIC50 (HLA-A*3101) | pIC50 (HLA-A*0301) | pIC50 (HLA-A*3301) | pIC50 (HLA-A*1101)
PVLTSLFNK | 4.52 | 5.29 | 5.71 | 4.74 | 7.60
ALERLLSLK | 4.86 | 5.46 | 6.63 | 4.89 | 6.43
KVGPGGYPRRK | 6.04 | 6.11 | 7.15 | < 5.30 | 7.06
RFHSIAGQYK | 7.08 | 8.89 | 7.77 | 6.20 | 7.37
FLYLLNKKNK | 6.81 | 5.37 | 6.75 | 6.11 | 6.32
AVPGGYPRRK | 6.07 | 4.40 | 6.09 | < 5.25 | 7.22
FAFTDLTIVY | 6.46 | 4.38 |  | 3.88 | 4.67
ILDLWVYK | 4.92 | 4.86 |  | 4.52 | 6.49
MQSSFFMNR | 8.42 | 7.54 |  | 7.12 | 8.96
VTVGPGPGVWK | 7.68 | 5.56 |  | 4.12 | 8.57
KFIDFYSRIR | 5.59 | 8.48 |  | 6.17 | 5.05
RFEDPTRRPYK | 5.13 | 7.28 |  | 5.75 | 6.36
LVYRDDFPK | 6.89 | 5.52 |  | 5.71 | 7.89
GVLDGLIYSK | 6.08 | 5.22 |  | < 4.60 | 7.68
GTRQTRKNK | 4.73 | 4.87 |  | < 4.53 | 5.51
TTRYKYLNK | 5.59 |  | 6.93 | 6.19 | 6.07
ATTDLTIVYR | 7.85 | 7.47 |  | 5.76 | 8.00
TVGPGPGPEK | 7.64 | 4.99 |  | 4.01 | 7.77
